Results as given in patent publication US20250085273A1, “NOVEL RAPID DRUG DISCOVERY FOR SEPSIS AND AGENTS FOR USE AS SEPSIS THERAPY” (priority 2023, published 2025).
Counter-ions that a name gives are not always drawn. Like-named read-outs stand apart in the source and are kept apart here.

Columns and labels:
Type in all cases: in vivo, Danio rerio
[1] = test system: 3-dpf Zebrafish Embryos Challenged with LPS (P. aeruginosa 60 μg/mL); settings: for Percent Rescue (Mort + Tail Edema): 3-dpf embryos, n=16; for Percent Rescue (Mort + Tail Edema) / rescue of tail edema and mortality (sepsis rescue rate) at 3-dpf / 3 dpf Embryos Percent Rescue (Mort + Tail Edema): compound 10 μM; for 3 dpf Embryos Percent Rescue (Mort + Tail Edema): initial 3-dpf screen shown for reference
Procedure: Healthy, normally developing embryos collected from the adult AB zebrafish spawning events were treated with 75 μM of 1-phenyl 2-thiourea (PTU) in EM prior to 24 hours post fertilization (hpf) to block pigmentation formation (Karlsson et al, 2001). These embryos were then placed into an incubator at 28.5° C. until they reached 3-dpf. Embryos were then removed from the incubator and plated individually into the wells of 96 well plates containing 50 μL of EM.
A super stock of 120 μg/mL of P. aeruginosa LPS was made up in EM in a glass container. This stock was then used to make sub stocks of 120 μg/mL P. aeruginosa LPS (positive control) and 120 μg/mL P. aeruginosa LPS containing 20 μM of test drug in glass scintillation vials. Immediately after the sub stocks were made, the wells were dosed with either 50 μL of 120 μg/mL of P. aeruginosa, 120 μg/mL of P. aeruginosa with 20 μM of test drug, or EM (1:1 Dilution). Each 96 well plate had one LPS positive control (n=16), 4 different test drugs with P. aeruginosa LPS (n=16 per drug), and one negative control (n=16). Once the plates were dosed, they were covered with parafilm and placed into an incubator at 28.5° C. The plates were removed at 6- and 24-hours post exposure to be scored for tail edema and mortality. All 644 drugs evaluated for rescue from mortality and tail edema induced by P. aeruginosa LPS exposure as compared to LPS-treated controls after 24 hours of exposure.
3-dpf embryos were challenged with 60 μg/mL P. aeruginosa LPS in combination with single 10 μM concentration of each compound for 24 hours (n=16 fish per compound). […] Other 29 compounds exceeded 60% rescue of tail edema and mortality at 24 hours post exposure.

[2] = test system: 5-dpf zebrafish larvae challenged with P. aeruginosa LPS 60 μg/mL; settings: compound 10 μM; for 5 dpf Embryos Percent Rescue (Mort + Tail Edema): 5-dpf larvae
Excerpt: Confirmatory testing followed the same methods as the initial testing but used 5-dpf larvae instead of the 3-dpf larvae that were used for the initial screening because they were easier to handle and replicated the methods of Philip et al. (2017).
Next, follow-on 5-dpf screening was implemented to confirm initial screening with more larvae. Zebrafish swim faster at 5-dpf (requiring more time to load 96 plates), and all major organ systems are functioning at 5-dpf and thus determined as advantageous for follow-on confirmation.

[3] = test system: zebrafish (4 dpf pre-treated, LPS exposure at 5-dpf) challenged with P. aeruginosa LPS 60 μg/mL; settings: number of n = 16 fish
Procedure: Drugs identified with >80% rescue were subjected to additional testing. Drug pretreatment for 24 hours prior to LPS challenge was evaluated to determine if any prophylactic benefit could be realized with any of the top rescue drugs. The intent was to determine if drug pre-treatment might be used at the point of injury as a preventative therapeutic before the onset of infection and development of sepsis. Parallel groups of fish received a 24-hour drug pre-treatment or no drug pre-treatment prior to LPS challenge. For this test, 4 dpf PTU-treated zebrafish embryos were placed into 96 well plates containing 100 μL of EM. […] All plates were covered with parafilm and placed into an incubator at 28.5° C. for 24 hours. […] Once the plates were dosed, they were covered with parafilm and placed into an incubator at 28.5° C. The plates were removed at 6- and 24-hours post exposure and scored for tail edema and mortality. Once the 24-hour tail edema and mortality endpoints were collected, a neurobehavioral test was conducted as described in section 2.8.

[4] = P. aeruginosa LPS 60 μg/mL, 24 hours, hydrochloride
[5] = 3-dpf, P. aeruginosa LPS 60 μg/mL, 24 hours
[6] = P. aeruginosa LPS 60 μg/mL, 24 hours
[7] = 3-dpf, P. aeruginosa LPS 60 μg/mL, 24 hours, hydrochloride
[8] = 24-hour 10 μM drug pre-treatment

| Compound | 5 dpf Embryos Percent Rescue (Mort + Tail Edema) [2] [%] | Percent Rescue (Mort + Tail Edema) [1, 6] [%] | 3 dpf Embryos Percent Rescue (Mort + Tail Edema) ([1]; P. aeruginosa LPS 60 μg/mL) [%] | further results |
| --- | --- | --- | --- | --- |
| O=C(Nc1nc(-c2cc(Cl)cs2)c(N2CCN(C3CCCCC3)CC2)s1)c1cnc(N2CCC(C(=O)O)CC2)c(Cl)c1 [Compound 3, Avatrombopag (hydrochloride)] |  |  |  | Percent Rescue (Mort + Tail Edema) [1, 4]: 56% |
| Cc1nc2n(c(=O)c1CCN1CCC(c3noc4cc(F)ccc34)CC1)CCCC2 [Compound 4, Risperidone] |  |  |  | rescue of tail edema and mortality (sepsis rescue rate) at 3-dpf [1, 5]: 6% |
| N[C@@H]1C[C@H]1c1ccccc1.N[C@@H]1C[C@H]1c1ccccc1.O=S(=O)(O)O [Compound 7, Tranylcypromine (hemisulfate)] | 56 | 88 | 88 |  |
| C[C@H](N)[C@H](O)c1ccc(O)c(O)c1 [Compound 10, Levonordefrin] | 75 | 63 | 63 |  |
| CC(C)NCC(O)COc1cccc2[nH]ccc12 (stereo not drawn) [Compound 12, Pindolol] |  | 56 |  |  |
| O=C(Nc1nc(-c2cc(Cl)cs2)c(N2CCN(C3CCCCC3)CC2)s1)c1cnc(N2CCC(C(=O)O)CC2)c(Cl)c1 [Compound 31, Avatrombopag] | 31 | 75 | 75 |  |
| CN[C@H]1CC[C@@H](c2ccc(Cl)c(Cl)c2)c2ccccc21 [Compound 37, Sertraline (hydrochloride)] | 31 | 88 | 88 |  |
| CC(C)(C)c1ccc(C(O)CCCN2CCC(C(O)(c3ccccc3)c3ccccc3)CC2)cc1 (stereo not drawn) [Compound 44, Terfenadine] | 0 | 75 | 75 | pericardial edema observation ([1]; 3-dpf, 24 hours): had pericardial edemas; mortality (survival) in 3-dpf initial screen [1, 5]: alive at 24 hours |
| Cc1nc2n(c(=O)c1CCN1CCC(c3noc4cc(F)ccc34)CC1)CCCC2O (stereo not drawn) [Compound 61, Paliperidone] |  |  |  | rescue of tail edema and mortality (sepsis rescue rate) at 3-dpf [1, 5]: 6% |
| Clc1ccc(CCCOCCCN2CCCCC2)cc1 [Compound 126, Pitolisant hydrochloride] |  |  |  | rescue of tail edema and mortality (sepsis rescue rate) at 3-dpf [1, 7]: 38% |
| CC(C)(C(=O)O)c1ccc(C(O)CCCN2CCC(C(O)(c3ccccc3)c3ccccc3)CC2)cc1 (stereo not drawn) [Compound 137, Fexofenadine] |  |  |  | rescue of tail edema in 3-dpf initial screen ([1]; 3-dpf, P. aeruginosa LPS 60 μg/mL): did not rescue tail edema; mortality (survival) in 3-dpf initial screen [1, 5]: did rescue mortality |
| Nc1ccc(S(=O)(=O)c2ccc(N)cc2)cc1 [Compound 155, Dapsone] | 25 | 69 | 69 |  |
| CN(C)[C@@H](CCOc1cccc2ccccc12)c1ccccc1 [Compound 156, Dapoxetine (hydrochloride)] | 38 | 100 | 100 | rescue of tail edema and mortality (sepsis rescue rate) at 5-dpf [2]: 38%; rescue of tail edema and mortality (sepsis rescue rate) at 3-dpf [1, 5]: 100% |
| CN(C)CCOC(C)(c1ccccc1)c1ccc(Cl)cc1 (stereo not drawn) [Compound 157, Chlorphenoxamine] |  | 50 |  |  |
| O=C(O)c1cc2ccccc2c(Cc2c(O)c(C(=O)O)cc3ccccc23)c1O.OCCOCCN1CCN(C(c2ccccc2)c2ccc(Cl)cc2)CC1 [Compound 207, Hydroxyzine (pamoate)] |  | 50 |  |  |
| CNCCc1ccccn1 [Compound 310, Betahistine] |  | 56 |  |  |
| C[C@H]1N=C(N(C)C)N=C(N)N1 [Compound 317, Imeglimin (hydrochloride)] |  | 50 |  |  |

| Compound | 5 dpf Embryos Percent Rescue (Mort + Tail Edema) [2] [%] | Percent Rescue (Mort + Tail Edema) [1, 6] [%] | 3 dpf Embryos Percent Rescue (Mort + Tail Edema) ([1]; P. aeruginosa LPS 60 μg/mL) [%] | further results |
| --- | --- | --- | --- | --- |
| CN1CCc2c(c3ccccc3n2Cc2ccccc2)C1 [Compound 318, Mebhydrolin] |  | 56 |  |  |
| CCN(CC)CCNC(=O)c1c(C)[nH]c(/C=C2\C(=O)Nc3ccc(F)cc32)c1C [Compound 354, Sunitinib (Malate)] | 100 | 88 | 88 | rescue of tail edema and mortality (sepsis rescue rate) at 5-dpf [2]: 100%; rescue of tail edema and mortality (sepsis rescue rate) at 3-dpf [1, 5]: 88% |
| Cc1cc(Nc2ncc(Cl)c(Nc3ccccc3S(=O)(=O)C(C)C)n2)c(OC(C)C)cc1C1CCNCC1 [Compound 378, Ceritinib dihydrochloride] | 38 | 75 | 75 |  |
| CNCC[C@H](Oc1cccc2ccccc12)c1cccs1 [Compound 386, Duloxetine (hydrochloride)] |  | 50 |  |  |
| CNS(=O)(=O)CCc1ccc2[nH]cc(C3CCN(C)CC3)c2c1 [Compound 438, Naratriptan (hydrochloride)] |  | 50 |  |  |
| COc1cc2ncnc(Nc3ccc(F)c(Cl)c3)c2cc1OCCCN1CCOCC1 [Compound 516, Gefitinib (ZD1839)] |  | 50 |  |  |
| CCN(CC)CC(=O)Nc1c(C)cccc1C [Compound 549, Lidocaine hydrochloride] |  | 56 |  |  |
| Clc1ccc(CCCOCCCN2CCCCC2)cc1 [Compound 589, Pitolisant hydrochloride] |  |  |  | Percent Rescue (Mort + Tail Edema) [1, 4]: 56%; rescue of tail edema and mortality (sepsis rescue rate) at 3-dpf [1, 7]: 56% |
| CC(C)(C)c1cc(NC(=O)Nc2ccc(-c3cn4c(n3)sc3cc(OCCN5CCOCC5)ccc34)cc2)no1 [Compound 598, Quizartinib (AC220)] |  | 56 |  |  |
| CCN(CC)CCNC(=O)c1c(C)[nH]c(/C=C2\C(=O)Nc3ccc(F)cc32)c1C [Compound 621, Sunitinib Malate] | 100 | 94 | 94 | rescue of tail edema and mortality (sepsis rescue rate) at 5-dpf [2]: 100%; rescue of tail edema and mortality (sepsis rescue rate) at 3-dpf [1, 5]: 88% |
| CCN(CC)CCNC(=O)c1c(C)[nH]c(/C=C2\C(=O)Nc3ccc(F)cc32)c1C.O=C(O)C[C@H](O)C(=O)O [Sunitnib (malate)] |  |  |  | 24 hour Tail Edema, No-Drug Pretreatment ([3]; 10 μM drug with LPS 60 μg/mL, no 24-hour pre-treatment): 4 fish; 24 Hour Mortality and Tail Edema, Drug Pretreatment [3, 8]: 2 fish; 24 Hour Mortality, Drug Pretreatment [3, 8]: 1 fish; 24 hour Tail Edema, Drug Pretreatment ([3]; 24-hour 10 μM drug pre-treatment before LPS 60 μg/mL): 1 fish; 24 Hour Mortality and Tail Edema, No-Drug Pretreatment ([3]; no 24-hour pre-treatment): 5 fish; 24 Hour Mortality, No Drug Pretreatment ([3]; no 24-hour pre-treatment): 1 fish |
| Almotriptan (malate) [Compound 6] | 63 | 63 | 63 |  |
| Alverine (citrate) [Compound 138] | 38 | 69 | 69 |  |
| Bedaquiline fumarate [Compound 474] | 0 | 94 | 94 |  |
| Gabexate (mesylate) [Compound 8] | 31 | 88 | 88 |  |
| Lumateperone (tosylate) [Compound 30] | 19 | 75 | 75 |  |
